Twelve compounds from patent US10155754B2, “Substituted 2-imino-1,3-thiazolidin-4-ones as N-arachidonoylethanolamine cellular uptake inhibitors” (UNIVERSITAT BERN, priority 2014, dated 2018) can be followed below.

The target in one assay is T1, FAAH (Homo sapiens, UniProt O00519).
T1 construct: endogenous in cells; host or cells: U937 cell homogenate
T1 sequence (O00519 1-579): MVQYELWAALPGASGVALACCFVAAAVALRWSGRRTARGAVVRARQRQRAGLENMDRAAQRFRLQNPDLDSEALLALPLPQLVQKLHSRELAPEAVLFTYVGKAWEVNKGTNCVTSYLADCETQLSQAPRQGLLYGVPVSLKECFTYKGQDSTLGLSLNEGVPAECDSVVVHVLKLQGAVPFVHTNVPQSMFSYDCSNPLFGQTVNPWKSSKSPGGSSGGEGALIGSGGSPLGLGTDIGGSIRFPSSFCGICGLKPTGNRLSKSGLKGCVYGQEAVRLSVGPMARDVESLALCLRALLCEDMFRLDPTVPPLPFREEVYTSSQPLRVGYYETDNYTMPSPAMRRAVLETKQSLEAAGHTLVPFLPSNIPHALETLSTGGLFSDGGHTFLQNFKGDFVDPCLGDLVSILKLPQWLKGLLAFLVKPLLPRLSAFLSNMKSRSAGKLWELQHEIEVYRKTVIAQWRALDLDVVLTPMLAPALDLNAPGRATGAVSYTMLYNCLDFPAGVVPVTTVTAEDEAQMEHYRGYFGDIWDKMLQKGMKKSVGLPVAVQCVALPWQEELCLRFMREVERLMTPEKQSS
Briefly: FAAH activity: hydrolysis of [3H]-AEA in U937 cell homogenates. Format: biochemical. The note with it: [3H]-AEA hydrolysis, final 100 nM AEA, read-out: FAAH inhibition IC50. The protocol:
Hydrolysis of [^3H]-AEA by FAAH was determined as previously described in cell homogenates of U937 cells (0.18 mg protein) (Omeir et al., 1999, Biochem Biophys Res Commun, 264, 316-20; Mor et al., 2004, J Med Chem, 47, 4998-5008). Protein amounts of cell homogenates corresponded to 0.5×10^6 cells (U937), to assure best possible comparability of IC50 values as used for the AEA cellular uptake assays. URB597 was used as positive control. Protein quantification was performed using a BCA assay (Thermo Scientific). Enzyme activity was assessed by addition of vehicle or compounds in 10 μL DMSO to 490 μL homogenate in 10 mM Tris HCl, 1 mM EDTA, 0.1% (w/v) BSA fatty acid free, pH=8 and incubation for 15 min at 37° C. After, a mixture of AEA plus [ethanolamine-1-^3H]-AEA (0.5 nM) at final 100 nM was added to the homogenates and incubated for 15 min at 37° C. The reaction was stopped by addition of 1 mL ice-cold CHCl3:MeOH (1:1) followed by vigorous vortexing. Phase separation was achieved by centrifugation at 10'000×g at 4° C. for 10 min. Radioactivity of the separated aqueous phase (upper phase) containing [^3H-ethanolamine] or [^3H-glycerol] was measured by liquid scintillation counting on a Tri-Carb 2100 TR liquid scintillation analyzer after addition of 3.5 mL Ultima Gold scintillation cocktail (PerkinElmer Life Sciences). Results are expressed as hydrolysis of tritium substrate in percent of vehicle treated control. IC50 values were calculated by GraphPad®. Data are reported as means of n=3 independent experiments performed in triplicates.

The test system of assay [1] is AEA cellular uptake (U937 cells). Briefly: [3H]-AEA cellular uptake inhibition in U937 cells. Type of assay: cell-based. The following applies: Homo sapiens, U-937, U937 cells, final 100 nM AEA with 0.5 nM [3H]-AEA, 15 min at 37° C.; read-out: AEA uptake IC50. In outline: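 U937 cells (0.5×10^6 per sample) pre-incubated with compound (100 pM–100 μM, triplicates) for 15 min at 37 °C, then given 100 nM AEA including 0.5 nM [3H]-AEA for 15 min. Filtration, washing and scintillation counting of cell-associated radioactivity; IC50 by four-parameter nonlinear regression.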

Broadly, the pIC50 is the IC50 on a negative log10 scale, so that one unit is a factor of ten.

pIC50: −log10 of the molar value.

Take `Cc1ccc(/N=C2\S/C(=C\c3ccc4c(c3)OCCO4)C(=O)N2C2CCCCC2)cc1` [24_A_I, (2Z,5Z)-3-cyclohexyl-5-(2,3-dihydro-1,4-benzodioxin-6-ylmethylene)-2-(p-tolylimino)thiazolidin-4-one]: the pIC50 is under 4.00 on FAAH and 6.52 in assay [1].

Regarding `O=C1/C(=C/c2ccc3c(c2)OCCO3)S/C(=N\c2ccccc2)N1c1ccc(F)cc1` [24_N_B, (2Z,5Z)-3-(4-fluorophenyl)-5-((2,3-dihydrobenzo[b][1,4]dioxin-6-yl)methylene)-2-(phenylimino)thiazolidin-4-one], the pIC50 on FAAH is under 4.00; in assay [1] it was 6.18.

In the case of `CC(C)CN1C(=O)/C(=C/c2ccc(CO)cc2)S/C1=N\c1ccc(F)cc1` [22_B_X, (2Z,5Z)-5-(4-(hydroxymethyl)benzylidene)-2-(4-fluorophenylimino)-3-isobutylthiazolidin-4-one], the pIC50 on FAAH was 4.72; in assay [1], 6.90.

Take `Cc1ccc(/N=C2\S/C(=C\c3ccc(CO)cc3)C(=O)N2CC(C)C)cc1` [22_A_X, (2Z,5Z)-5-(4-(hydroxymethyl)benzylidene)-2-(p-tolylimino)-3-isobutylthiazolidin-4-]: the values for the negative logarithm of the IC50 (pIC50) (at FAAH; in assay [1]) were under 4.00 and 6.82, respectively.

In the case of `COCc1cccc(/C=C2\S/C(=N\Cc3ccc(OC)cc3)N(c3ccccc3)C2=O)c1` [15_Q_N, (2Z,5Z)-5-(3-(methoxymethyl)benzylidene)-2-(4-methoxybenzylimino)-3-phenylthiazolidin-4-one], the pIC50 was over 5.00 at FAAH and 6.43 in assay [1].

With `COc1ccc(C/N=C2\S/C(=C\c3ccc4c(c3)OCCO4)C(=O)N2c2ccc(F)cc2)cc1` [24_Q_B, (2Z,5Z)-2-(4-methoxybenzylimino)-3-(4-fluorophenyl)-5-((2,3-dihydrobenzo[b][1,4]dioxin-6-yl)methylene)thiazolidin-4-one], the pIC50 at FAAH is 5.89; in assay [1], 7.48.

Turning to `CC(C)CN1C(=O)/C(=C/c2ccc3[nH]ccc3c2)S/C1=N\c1ccc(F)cc1` [03_B_X, (2Z,5Z)-5-((1H-indol-5-yl)methylene)-2-(4-fluorophenylimino)-3-isobutylthiazolidin-4-one], the pIC50 on FAAH is under 4.00; in assay [1] it was 6.32.

In the case of `Cc1ccc(/N=C2\S/C(=C\c3ccc4c(cnn4C)c3)C(=O)N2CC(C)C)cc1` [28_A_X, (2Z,5Z)-2-(p-tolylimino)-3-isobutyl-5-((1-methyl-1H-indazol-5-yl)methylene)thiazolidin-4-one], the pIC50 was under 4.00 at FAAH and 6.45 in assay [1].

Regarding `COc1ccc(C/N=C2\S/C(=C\c3ccc4c(c3)OCCO4)C(=O)N2CC(C)C)cc1` [24_Q_X, (2Z,5Z)-2-(4-methoxybenzylimino)-5-((2,3-dihydrobenzo[b][1,4]dioxin-6-yl)methylene)-3-isobutylthiazolidin-4-one], the pIC50 was 6.37 on FAAH and 6.86 in assay [1].

Take `Cc1ccc(/N=C2\S/C(=C\c3ccc4[nH]cnc4c3)C(=O)N2CC(C)C)cc1` [04_A_X, (2Z,5Z)-5-((1H-benzo[d]imidazol-5-yl)methylene)-2-(p-tolylimino)-3-isobutylthiazolidin-4-one]: the pIC50 at FAAH was 4.84; in assay [1], 6.81.

Consider `Cc1ccc(/N=C2\S/C(=C\c3ccc(CO)cc3)C(=O)N2c2ccccc2)cc1` [22_A_N, (2Z,5Z)-5-(4-(hydroxymethyl)benzylidene)-2-(p-tolylimino)-3-phenylthiazolidin-4-one], for which the pIC50 on FAAH is 4.71; in assay [1], 6.95.

Regarding `Cc1ccc(/N=C2\S/C(=C\c3ccc4c(cnn4C)c3)C(=O)N2C2CCCCC2)cc1` [28_A_I, (2Z,5Z)-2-(p-tolylimino)-3-cyclohexyl-5-((1-methyl-1H-indazol-5-yl)methylene)thiazolidin-4-one], the pIC50 is under 4.00 at FAAH and 6.41 in assay [1].
